Laboratory results: publication PMC9232448 (European Journal of Drug Metabolism and Pharmacokinetics, 2022)
Read-outs that look alike come from different tables or passages of the source.

What was measured:
[1] = test system: CYP3A4 mRNA; assay: CYP3A4 mRNA induction in plated cryopreserved human hepatocytes; format: cell-based; conditions: three donors; for true negative in vitro induction: statistical dose response and fold induction
[2] = Metabolic stability in hepatocyte induction incubations; format: in vitro ADME, human; conditions: last 24 hours of the incubation
[3] = cited from earlier work
[4] = test system: CYP3A; conditions: human, in vivo; cited from earlier work
[5] = test system: human hepatocytes; assay: Cytotoxicity / bell-shaped curves in hepatocyte induction incubations; format: cell-based; conditions: for concentration above which cytotoxicity was seen: donor two; for concentrations removed from fitting (bell-shaped curve, suspected cytotoxicity): all donors
[6] = cited from earlier work; remark: listed apart in the source
[7] = Estimated free fraction in culture medium; conditions: bovine, hepatocyte culture medium with 1.25 mg/ml BSA
[8] = reported value before fu was set to 0.01

O=C(O)c1ccc(CN2C[C@@H]3C[C@H]2CN3Cc2ccc(Oc3ccc(-c4ncco4)cc3)cc2)cc1 [Acebilustat, acebilustat]
true negative in vitro induction [1]: true in vitro negatives in all three donors | % loss when comparing the Cavg to the T0 concentration (limited depletion) [2]: < 25%

Cn1cnc2c(F)c(Nc3ccc(Br)cc3F)c(C(=O)NOCCO)cc21 [Binimetinib]
concentration-dependent increase in CYP3A4 mRNA [1]: concentration-dependent increases in all three donors

COc1ccccc1Oc1c(NS(=O)(=O)c2ccc(C(C)(C)C)cc2)nc(-c2ncccn2)nc1OCCO [Bosentan]
observed fu,in vitro [3]: 0.38

NC(=O)N1c2ccccc2C=Cc2ccccc21 [Carbamazepine]
AUCR range [4]: 0.124–0.603

Nc1nc(-n2cc(C(=O)O)c(=O)c3cc(F)c(N4CC(O)C4)c(Cl)c32)c(F)cc1F [Delafloxacin, delafloxacin]
true negative in vitro induction [1]: negative in two donors | concentration-dependent increase in CYP3A4 mRNA [1]: concentration-dependent increases in one of three donors | concentration at which apparent cytotoxicity was seen ([5]; donor three): 300 µM | concentration above which cytotoxicity was seen [5]: > 100 µM | % loss when comparing the Cavg to the T0 concentration (limited depletion) [2]: < 25%

Cn1c(Cn2ccc(C(F)(F)F)c(Oc3cc(Cl)cc(C#N)c3)c2=O)n[nH]c1=O [Doravirine, doravirine]
concentration-dependent increase in CYP3A4 mRNA [1]: concentration-dependent increases in all three donors | % loss when comparing the Cavg to the T0 concentration (limited depletion) [2]: < 25%

O=C1Nc2ccc(Cl)cc2[C@@](C#CC2CC2)(C(F)(F)F)O1 [Efavirenz]
fu (reported plasma protein binding) ([6]; plasma): 0.0025 | AUCR range [4]: 0.240–0.929

O=C(O)CSc1nnc(Br)n1-c1ccc(C2CC2)c2ccccc12 [Lesinurad, lesinurad]
concentration-dependent increase in CYP3A4 mRNA [1]: concentration-dependent increases in all three donors | concentrations removed from fitting (bell-shaped curve, suspected cytotoxicity) [5]: > 100 µM | % loss when comparing the Cavg to the T0 concentration (limited depletion) [2]: < 25%

CCC1(c2ccccc2)C(=O)NC(=O)NC1=O [Phenobarbital]
AUCR [4]: 0.394

O=C1NC(=O)C(c2ccccc2)(c2ccccc2)N1 [Phenytoin]
AUCR range [4]: 0.105–0.607

Cc1cc(CCCOc2c(C)cc(-c3noc(C(F)(F)F)n3)cc2C)on1 [Pleconaril]
fu (reported plasma protein binding) [6, 8]: 0.01 | correction factor applied to nominal concentrations (nonspecific binding) [3]: 0.2 | fraction unbound [7]: 0.256

Cc1nnc(C(=O)NC(C)(C)c2nc(C(=O)NCc3ccc(F)cc3)c(O)c(=O)n2C)o1 [Raltegravir, raltegravir]
true negative in vitro induction [1]: true in vitro negatives in all three donors

CO[C@H]1/C=C/O[C@@]2(C)Oc3c(C)c(O)c4c(O)c(c(/C=N/N5CCN(C)CC5)c(O)c4c3C2=O)NC(=O)/C(C)=C\C=C\[C@H](C)[C@H](O)[C@@H](C)[C@@H](O)[C@@H](C)[C@H](OC(C)=O)[C@@H]1C [Rifampicin]
% loss when comparing the Cavg to the T0 concentration (limited depletion) [2]: < 25%

CO[C@H]1/C=C/O[C@@]2(C)Oc3c(C)c(O)c4c(O)c(c5c(nc6cc(C)ccn65)c4c3C2=O)NC(=O)/C(C)=C\C=C\[C@H](C)[C@H](O)[C@@H](C)[C@@H](O)[C@@H](C)[C@H](OC(C)=O)[C@@H]1C [Rifaximin, rifaximin]
concentration-dependent increase in CYP3A4 mRNA [1]: concentration-dependent increases in all three donors | % loss when comparing the Cavg to the T0 concentration (limited depletion) [2]: < 25%

Cc1cc(/C=C/C#N)cc(C)c1Nc1ccnc(Nc2ccc(C#N)cc2)n1 [Rilpivirine, rilpivirine]
concentration-dependent increase in CYP3A4 mRNA [1]: concentration-dependent increases in all three donors | concentration above which cytotoxicity was seen [5]: > 100 µM | concentration above which signs of cytotoxicity were seen ([5]; donors one): > 30 µM

CC(C)N(CCCCOCC(=O)NS(C)(=O)=O)c1cnc(-c2ccccc2)c(-c2ccccc2)n1 [Selexipag, selexipag]
concentration-dependent increase in CYP3A4 mRNA [1]: concentration-dependent increases in all three donors | fu (reported plasma protein binding) [6, 8]: < 0.01

CC(C)OC(=O)[C@H](C)N[P@](=O)(OC[C@H]1O[C@@H](n2ccc(=O)[nH]c2=O)[C@](C)(F)[C@@H]1O)Oc1ccccc1 [Sofosbuvir, sofosbuvir]
true negative in vitro induction [1]: negative in one donor | concentration-dependent increase in CYP3A4 mRNA [1]: concentration-dependent increases in two of three donors | concentrations removed from fitting (bell-shaped curve, suspected cytotoxicity) [5]: 300 µM

O=C(O)c1ccc2nc(-c3cc(Cl)cc(Cl)c3)oc2c1 [Tafamidis, tafamidis]
concentration-dependent increase in CYP3A4 mRNA [1]: concentration-dependent increases in all three donors | fu (reported plasma protein binding) ([6]; plasma): 0.005 | % loss when comparing the Cavg to the T0 concentration (limited depletion) [2]: < 25%

CCC(=O)NC[C@@H]1C[C@H]1c1cccc2c1CCO2 [Tasimelteon, tasimelteon]
concentration-dependent increase in CYP3A4 mRNA [1]: concentration-dependent increases in all three donors

C[C@H](Cn1cnc2c(N)ncnc21)OCP(=O)(O)O [Tenofovir, tenofovir]
true negative in vitro induction [1]: true in vitro negatives in all three donors | % loss when comparing the Cavg to the T0 concentration (limited depletion) [2]: < 25%

CCc1ccc(CCOc2ccc(CC3SC(=O)NC3=O)cc2)nc1 (stereo not drawn) [pioglitazone]
observed fu,in vitro [3]: 0.22

CN(CCOc1ccc(CC2SC(=O)NC2=O)cc1)c1ccccn1 (stereo not drawn) [rosiglitazone]
observed fu,in vitro [3]: 0.15
